Measured values taken from ChEMBL document CHEMBL3853262 (Medchemcomm, 2016).

Tests used:
Assay type in all cases: functional, cell-based
[1] = system: ASPC1; assay: Proapoptotic activity in human AsPC1 cells by annexin V-FITC/propidium iodide staining-based capillary cytometric method
[2] = system: BJ; assay: Proapoptotic activity in human BJ cells by annexin V-FITC/propidium iodide staining-based capillary cytometric method
[3] = system: BXPC-3; assay: Proapoptotic activity in human BxPC3 cells by annexin V-FITC/propidium iodide staining-based capillary cytometric method
[4] = system: NTERA-2-cl-D1; assay: Proapoptotic activity in human NT2/D1 cells by annexin V-FITC/propidium iodide staining-based capillary cytometric method

For `COc1ccc2[nH]c(C(=O)Nc3cccc(-c4c[nH]c(N)n4)c3)cc2c1`, the EC50 [1] was 52 µM, the EC50 [2] was 31 µM and the EC50 [3] was 53 µM. The EC50 [4] was 16 µM.
